In publication PMC10733197, “Utilization of Rosuvastatin and Endogenous Biomarkers in Evaluating the Impact of Ritlecitinib on BCRP, OATP1B1, and OAT3 Transporter Activity” (Pharmaceutical Research, 2023):

Assays:
OATP1B3 = molecular target: T1, OATP1B3 (Homo sapiens, UniProt Q9NPD5); test: OATP1B3-mediated rosuvastatin uptake inhibition in transfected HEK293 cells; type: cell-based; conditions: for IC50: hepatic OATP1B3, RSV 0.3–0.5 µM as substrate, 1—3 min, HEK293, mean ± SD, n = 3
T1 construct: expressed in transfected cells; host or cells: HEK293
T1 sequence (Q9NPD5 1-702): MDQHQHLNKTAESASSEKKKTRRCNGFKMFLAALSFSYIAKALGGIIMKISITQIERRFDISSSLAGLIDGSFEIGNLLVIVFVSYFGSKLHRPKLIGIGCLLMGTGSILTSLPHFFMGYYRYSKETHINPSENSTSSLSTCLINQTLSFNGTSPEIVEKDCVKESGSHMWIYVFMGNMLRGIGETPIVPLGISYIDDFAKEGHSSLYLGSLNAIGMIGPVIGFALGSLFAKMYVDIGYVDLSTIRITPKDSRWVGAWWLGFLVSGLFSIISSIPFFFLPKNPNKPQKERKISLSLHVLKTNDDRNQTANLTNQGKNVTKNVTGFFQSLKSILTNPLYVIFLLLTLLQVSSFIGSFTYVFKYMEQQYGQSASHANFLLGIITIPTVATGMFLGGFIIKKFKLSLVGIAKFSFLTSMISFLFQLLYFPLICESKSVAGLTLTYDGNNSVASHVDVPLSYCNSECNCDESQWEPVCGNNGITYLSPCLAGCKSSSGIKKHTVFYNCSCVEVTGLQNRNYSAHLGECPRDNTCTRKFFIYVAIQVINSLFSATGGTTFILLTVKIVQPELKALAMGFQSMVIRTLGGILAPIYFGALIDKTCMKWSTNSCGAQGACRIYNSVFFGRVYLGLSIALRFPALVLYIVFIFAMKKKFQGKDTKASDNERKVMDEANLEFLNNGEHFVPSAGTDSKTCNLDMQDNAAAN
Experimental: (§1) Sources of human embryonic kidney (HEK) 293 cells expressing individual transfected human solute carriers (SLC), test substrates, and cell culture reagents, as well as detailed cell culture methods, incubations, and sample processing, have been described previously. SLC included hepatic OATP1B1, OATP1B3, and renal OAT1 and OAT3. […] Likewise, the uptake of non-labeled rosuvastatin (Biosynth, San Diego, CA) at 0.3—0.5 µM was determined for OATP1B1 and OATP1B3 at 1—3 min, and CP-I (Frontier Specialty Chemicals, Logan, UT) at 0.1 µM was determined for OATP1B1 and OATP1B3 at 10 min [14].
(§2) In all cases, ritlecitinib (0.018 to 1000 µM) and metabolite M2 (0.018 to 300 µM) was tested over a wide range of final concentrations dissolved in dimethyl sulfoxide (the final concentration of dimethyl sulfoxide in the assays was 1% v/v). For each transporter, the IC50 was estimated using a four-parameter logistic equation (Eq. 1) using GraphPad Prism software (GraphPad Software Inc, La Jolla, CA).1 %UptakeActivity=Bottom+(Top-Bottom)/1+10^(LogIC50-inhib*HillSlope)
At the end of the uptake and inhibition experiment, cellular accumulation of ^3H-PAH and ^3H-E3S was determined using liquid scintillation counting as previously described. Rosuvastatin uptake was determined using a tandem high performance liquid chromatography (LC)-mass spectrometry (MS) assay.

CYP3A = conditions: cited from earlier work
[1] = human, in vivo
Experimental: This was a Phase 1, 2-period fixed-sequence, multiple-dose, open-label study of the effect of ritlecitinib on the pharmacokinetics and renal clearance of a single, oral dose of rosuvastatin in healthy participants (Fig. 1). The safety and tolerability of rosuvastatin when coadministered with ritlecitinib was also evaluated.
In Period 1 on Day 1, following an overnight fast of at least 10 h, participants received a single oral administration of rosuvastatin 10 mg tablet. Period 1 was immediately followed by Period 2 with no washout. In Period 2 (coadministration), participants received oral ritlecitinib 200 mg once daily (QD) under non-fasting conditions for 7 days. On the morning of Day 8, a single dose of rosuvastatin 10 mg tablet was administered orally within approximately 5 min after administration of a ritlecitinib 200 mg dose under fasting conditions. On Days 9 and 10, participants continued to receive oral ritlecitinib 200 mg QD under non-fasting conditions.

OATP1B1 = molecular target: T2, OATP1B1 (Homo sapiens, UniProt Q9Y6L6); test: OATP1B1-mediated CP-I uptake inhibition in transfected HEK293 cells; type: cell-based
T2 construct: expressed in transfected cells; host or cells: HEK293
T2 sequence (Q9Y6L6 1-691): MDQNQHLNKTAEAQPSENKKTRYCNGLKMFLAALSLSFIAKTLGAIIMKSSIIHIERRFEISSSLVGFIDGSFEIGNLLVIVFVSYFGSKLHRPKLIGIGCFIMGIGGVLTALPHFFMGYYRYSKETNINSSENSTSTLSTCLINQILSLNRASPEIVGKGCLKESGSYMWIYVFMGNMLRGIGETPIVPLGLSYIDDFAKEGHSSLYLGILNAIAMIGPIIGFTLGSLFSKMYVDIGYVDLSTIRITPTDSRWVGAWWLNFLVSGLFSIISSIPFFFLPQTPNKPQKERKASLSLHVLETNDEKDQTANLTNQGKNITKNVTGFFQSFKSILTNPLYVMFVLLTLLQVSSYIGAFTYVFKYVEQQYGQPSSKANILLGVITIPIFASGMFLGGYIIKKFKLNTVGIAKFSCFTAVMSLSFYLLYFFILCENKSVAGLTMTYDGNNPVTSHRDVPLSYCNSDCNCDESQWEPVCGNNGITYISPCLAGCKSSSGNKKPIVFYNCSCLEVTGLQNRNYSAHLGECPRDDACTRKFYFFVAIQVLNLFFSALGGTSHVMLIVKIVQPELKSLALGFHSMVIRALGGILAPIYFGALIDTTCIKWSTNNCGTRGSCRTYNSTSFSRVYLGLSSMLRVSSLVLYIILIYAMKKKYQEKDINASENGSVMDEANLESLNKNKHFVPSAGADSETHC
Experimental: as §1, §2
Uptake of CP-I was determined by analysis of the in vitro assay samples using an optimized LC-high resolution mass spectrometry (HRMS) method. In brief, dried samples were reconstituted in 150 µL of 0.1% formic acid and analyzed by LC-HRMS. Analyte separation and detection was achieved using a Shimadzu Nexera high performance LC system (Shimazdu Scientific, MA, USA) coupled to a Sciex API-6600 Q-TOF (time of flight) mass spectrometer with a Turbo IonDrive source (Sciex Corporation, MA, USA). Chromatographic separation was achieved using a Waters Acquity BEH C18 1.7µ 2.1 mm x 100 mm column and a binary mobile phase system consisting of 0.1% v/v formic acid and 0.1% v/v formic acid in acetonitrile, as mobile phase A and B, respectively. The column temperature was held at 60 °C and the flow rate was 0.55 mL/minute. The gradient program had initial conditions of 5% B which was held for 0.9 min, followed by a linear ramp to 95% B over 5.1 min, a hold for 1.0 min, and a return to starting conditions over 0.1 min with re-equilibration for 0.9 min (total run time of 8.0 min). Analyte detection was achieved using an API-6600 Q T-OF mass spectrometer with electrospray ionization (ESI). The mass spectrometer was operated in both TOF-MS and TOF-MS/MS mode with data collected over a 60 to 670 dalton mass range. TOF-MS/MS data were collected in the high-resolution mode. Quantification of CP-I levels was assessed using targeted TOF-MS/MS data with accumulation times of 150 and 35 ms, respectively, for CP-I and the internal standard (ISTD) verapamil. […]

| SMILES | Triggers Drug Interaction Cutoff (OATP1B3; OATP1B3 (RSV)) | R-value (OATP1B3; OATP1B3 (RSV), 1 + (Imax,inlet,u/IC50), cutoff 1.1 (FDA), 1.04 (EMA)) | Fraction Inhibited (OATP1B3; OATP1B3 (RSV), Imax,inlet,u/(Imax,inlet,u + IC50) (Eq. 1)) | Fraction Inhibited (OATP1B3; OATP1B3 (RSV), Imax,inlet,u/(Imax,inlet,u + IC50) (Eq. 1), listed as ritlecitinib) | IC50 (OATP1B3) | inhibition of CYP3A (CYP3A; classification in words) | contribution of CYP3A pathway to metabolism of ritlecitinib (CYP3A; ref data not published) | serious AEs, severe AEs, dose reductions or discontinuations due to AEs [1] | Triggers Drug Interaction Cutoff (OATP1B1; OATP1B1 (CP-I)) | R-value (OATP1B1; OATP1B1 (CP-I), 1 + (Imax,inlet,u/IC50), cutoff 1.1 (FDA), 1.04 (EMA)) | Fraction Inhibited (OATP1B1; OATP1B1 (CP-I), Imax,inlet,u/(Imax,inlet,u + IC50) (Eq. 1)) | IC50 (OATP1B1; hepatic OATP1B1, CP-I 0.1 µM as substrate, 10 min, HEK293, mean ± SD, n = 3) | Cmax,u/IC50 ratio (OATP1B3; OATP1B3 (RSV), Cmax,u used for metabolite M2) | Fraction Inhibited (OATP1B3; OATP1B3 (RSV), Cmax,u/(Cmax,u + IC50) for M2 (Eq. 3)) |
| --- | --- | --- | --- | --- | --- | --- | --- | --- | --- | --- | --- | --- | --- | --- |
| C=CC(=O)N1C[C@H](Nc2ncnc3[nH]ccc23)CC[C@@H]1C [Ritlecitinib, ritlecitinib] | No | 1.03 | 0.03 | ≤ 0.1 | 934 ± 59 µM | moderate inhibitor | < 25% | no serious adverse events | Yes | 1.12 | 0.1 | 257 ± 8 µM | – | – |
| C[C@H]1CC[C@@H](Nc2ncnc3[nH]ccc23)CN1C(=O)CCSC[C@H](N)C(=O)O [M2] | Yes | – | – | – | 8.4 ± 0.2 µM | – | – | – | – | – | – | – | 0.17 | 0.1 |
